In this assay the target is LRRK2 (Homo sapiens (Human), UniProt Q5S007, G2019S). The experiment in a line: In Vitro LRRK2 LabChip Assay (LRRK2 Ki). Format: biochemical. As to the method:
In Vitro LRRK2 LabChip Assay
This assay was used to determine a compound's potency in inhibiting activity of LRRK2 by determining, Kiapp, IC50, or percent inhibition values. In a polypropylene plate, LRRK2, fluorescently-labeled peptide substrate, ATP and test compound were incubated together. Using a LabChip 3000 (Caliper Life Sciences), after the reaction the substrate was separated by capillary electrophoresis into two populations: phosphorylated and unphosphorylated. The relative amounts of each were quantitated by fluorescence intensity. LRRK2 Ki was determined according to the equation: Y=V0*(1−((x+Ki*(1+S/Km)+Et)/(2*Et)−(((x+Ki*(1+S/Km)+Et)^2−(4*Et*x))^0.5)/(2*Et))). Ki values in Table 4 and elsewhere herein are shown in μM.
Assay conditions and materials used were as follows:
Kinase reaction time: 2 hours
Wild type in 5 mM MgCl2: 80 μM
Solid Support: Black 50 μL volume polypropylene 384 well plate (MatriCal cat #MP101-1-PP)
Non-binding plate: 384 well clear V-bottom polypropylene plates (Greiner cat #781280).
ATP: 10 mM ATP (Cell Signaling cat #9804).
Coating Reagent #3: Coating Reagent #3 (Caliper).
Complete Reaction Buffer: H2O/25 mM Tris, pH 8.0/5 mM MgCl2/2 mM DTT/0.01% Triton X-100.
Stop Solution: H2O/100 mM HEPES, pH 7.2/0.015% Brij-35/0.2% Coating Reagent #3/20 mM EDTA.
Separation Buffer: H2O/100 mM HEPES, pH 7.2/0.015% Brij-35/0.1% Coating Reagent #3/1:200 Coating Reagent #8/10 mM EDTA/5% DMSO.
Compound Plate Preparation:
For serial dilutions, 34.6 μl DMSO was added to columns 3-24. For the assay controls, 37.5 μl DMSO was added to columns 1 and 2 of rows A and P. a,d and 50 μl 25 μM G-028831 (Staurosporine) was added to columns 1 and 2, row B. For the samples: to start at 100 μM, 37.5 μl DMSO was to columns 1 and 2, then 12.5 μl 10 mM compound; to start at 10 μM, 78 μl DMSO was added to columns 1 & 2, then 2 μl 10 mM compound; and to start at 1 μM, 25 μM compound (2 μl 10 mM cmpd+798 μl DMSO) was added to empty columns 1 and 2. A Precision instrument was used to perform 1:3.16 serial dilutions (“PLK_BM_serial_halflog”).
ATP was diluted to 282.1 μM in Complete Kinase Buffer (final concentration was 130 μM).
Total and Blank Preparation:
In Complete Reaction Buffer, substrate was diluted to 4 μM. Equal volumes of Complete Reaction Buffer and 4 μM substrate were combined to obtain the blank. Equal volumes of Complete Reaction Buffer and 4 μM substrate were combined and to the combined solution was added 2× final LRRK2 concentration.
To a 50 μl polypropylene plate, 5 μl/well buffer/substrate was added by hand to Blank wells. A Biomek FX was used to start the kinase reaction (“PLK SAR 23 ATP”). The following were added to the appropriate wells:
5 μl/well compound/ATP in Assay Plate;
5 μl/well kinase/substrate in Assay Plate;
The plate was incubated for 2 hours in the dark. Biomek FX was used to stop the kinase reaction (“PLK Stop”), and 10 μl/well Stop solution was added to the Assay Plate. Results were read on the LabChip 3000.
The LabChip 3000 was run using the job “LRRK2 IC50” with the following job settings:
Downstream voltage: −500 V
Upstream voltage: −2350 V
Post sample buffer sip time: 75 seconds
Post dye buffer sip time: 75 seconds
Final delay time: 200 seconds
LRRK2, sequence (Q5S007 970-2527 G2019S): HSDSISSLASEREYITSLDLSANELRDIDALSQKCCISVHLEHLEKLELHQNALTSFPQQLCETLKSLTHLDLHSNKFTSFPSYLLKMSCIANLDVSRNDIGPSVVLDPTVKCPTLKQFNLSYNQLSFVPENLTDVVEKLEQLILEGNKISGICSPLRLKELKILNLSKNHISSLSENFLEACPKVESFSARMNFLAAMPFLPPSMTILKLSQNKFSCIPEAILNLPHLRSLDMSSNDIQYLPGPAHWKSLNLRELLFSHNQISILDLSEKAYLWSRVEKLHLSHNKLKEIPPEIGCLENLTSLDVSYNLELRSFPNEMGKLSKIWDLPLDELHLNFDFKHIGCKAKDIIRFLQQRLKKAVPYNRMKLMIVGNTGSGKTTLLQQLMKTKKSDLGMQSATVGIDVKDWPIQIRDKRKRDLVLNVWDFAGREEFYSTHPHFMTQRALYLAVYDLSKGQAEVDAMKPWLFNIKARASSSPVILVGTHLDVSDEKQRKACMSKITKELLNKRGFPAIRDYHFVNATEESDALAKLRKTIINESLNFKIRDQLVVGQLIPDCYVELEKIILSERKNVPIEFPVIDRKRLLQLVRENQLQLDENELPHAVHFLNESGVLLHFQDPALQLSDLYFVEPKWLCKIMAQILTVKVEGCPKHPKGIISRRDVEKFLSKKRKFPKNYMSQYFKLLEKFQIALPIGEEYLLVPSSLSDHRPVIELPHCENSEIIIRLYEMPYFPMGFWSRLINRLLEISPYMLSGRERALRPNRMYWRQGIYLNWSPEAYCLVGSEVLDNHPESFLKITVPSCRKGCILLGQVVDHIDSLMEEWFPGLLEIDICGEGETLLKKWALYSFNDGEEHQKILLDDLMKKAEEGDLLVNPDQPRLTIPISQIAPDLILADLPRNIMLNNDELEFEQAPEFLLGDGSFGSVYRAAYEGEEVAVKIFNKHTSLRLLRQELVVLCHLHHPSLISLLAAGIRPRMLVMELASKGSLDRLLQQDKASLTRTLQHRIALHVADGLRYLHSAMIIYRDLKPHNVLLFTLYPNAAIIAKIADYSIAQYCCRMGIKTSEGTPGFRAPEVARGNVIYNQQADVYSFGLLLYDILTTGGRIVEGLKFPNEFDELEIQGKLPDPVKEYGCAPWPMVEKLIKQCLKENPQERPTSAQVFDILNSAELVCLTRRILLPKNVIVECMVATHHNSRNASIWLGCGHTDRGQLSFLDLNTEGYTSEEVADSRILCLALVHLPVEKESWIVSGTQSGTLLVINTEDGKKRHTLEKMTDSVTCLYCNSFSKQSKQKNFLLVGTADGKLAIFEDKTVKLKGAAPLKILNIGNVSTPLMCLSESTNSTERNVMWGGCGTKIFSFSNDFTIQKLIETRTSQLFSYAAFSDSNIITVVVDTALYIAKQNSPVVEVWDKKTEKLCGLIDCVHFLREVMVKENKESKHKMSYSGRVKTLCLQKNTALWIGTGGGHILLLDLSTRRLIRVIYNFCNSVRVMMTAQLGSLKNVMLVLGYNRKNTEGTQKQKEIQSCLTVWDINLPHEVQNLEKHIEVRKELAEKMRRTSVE
Broadly, the Ki is the equilibrium dissociation constant of an inhibitor or competing ligand from its target. Read a high Ki as lower affinity. With `CNc1nc(Nc2ccc(N3CCOCC3)cc2OC)ncc1Cl` [Example 24, 5-chloro-N2-(2-methoxy-4-morpholinophenyl)-N4-methylpyrimidine-2,4-diamine], the Ki came out at 9 nM.
The compound `CNc1nc(Nc2cc(F)c(N3CCCCC3=O)cc2OC)ncc1C(F)(F)F` [Example 32, 1-(2-fluoro-5-methoxy-4-(4-(methylamino)-5-(trifluoromethyl)pyrimidin-2-ylamino)phenyl)piperidin-2-one] showed a Ki of 5.5 nM.
Take `CNc1nc(Nc2ccc(C(=O)O)cc2OC)ncc1Cl` [Example 25, 4-(5-chloro-4-(methylamino)pyrimidin-2-ylamino)-3-methoxybenzoic acid]: the inhibition constant (Ki) was 7 nM.
`CNc1nc(Nc2ccc(S(C)(=O)=O)cc2Cl)ncc1C(F)(F)F` [Example 7, N2-(2-Chloro-4-methanesulfonyl-phenyl)-N4-methyl-5-trifluoromethyl-pyrimidine-2,4-diamine] registered an inhibition constant Ki of 8 nM.
On to `CNc1nc(Nc2ccc(S(C)(=O)=O)cc2OC(C)C)ncc1C(F)(F)F` [Example 16, N2-(2-Isopropoxy-4-methanesulfonyl-phenyl)-N4-methyl-5-trifluoromethyl-pyrimidine-2,4-diamine], for which the affinity, expressed as Ki, was 17 nM.
Under `CNc1nc(Nc2cc(C)c(C#N)cc2OC)ncc1C(F)(F)F` [Example 13, 5-Methoxy-2-methyl-4-(4-methylamino-5-trifluoromethyl-pyrimidin-2-ylamino)-benzonitrile] stands 12 nM; under `CNc1nc(Nc2ccc(CN3CCOCC3)cc2OC)ncc1C(F)(F)F` [Example 9, N2-(2-Methoxy-4-morpholin-4-ylmethyl-phenyl)-N4-methyl-5-trifluoromethyl-pyrimidine-2,4-diamine], 3 nM; under `CNc1nc(Nc2ccc(C(F)(F)F)cc2OC)ncc1C(F)(F)F` [Example 27, N2-(2-methoxy-4-(trifluoromethyl)phenyl)-N4-methyl-5-(trifluoromethyl)pyrimidine-2,4-diamine], 23 nM.

The values above are taken from US9145402B2, “Aminopyrimidine derivatives as LRRK2 modulators” (Genentech, Inc., priority 2011, dated 2015).
